Publication PMC9575645 (Signal Transduction and Targeted Therapy, 2022)

What was measured:
[1] = tested on: SARS-CoV-2 (KCDC03); test: In vitro antiviral activity against SARS-CoV-2 in Vero E6 cells (CCIF viral yield, RT-qPCR); format: cell-based; details: for SI (CC50/IC50) / IC50: SARS-CoV-2 (KCDC03); for IC50: Vero E6 cells; for virus replication (genome copy number, infectious progeny): SARS-CoV-2-infected Vero E6, 20 µM at 18 hpi
[2] = tested on: MDCK; test: Cytotoxicity, MTT assay, MDCK; format: cell-based, canine
Description: (§1) The cytotoxic effects of the chemicals and their solvents were tested by the MTT assay,[44] and its procedure is described in Supplementary Information.
(§2) The cytotoxic effects of the chemicals and their solvents used were tested by the MTT assay as described previously.^10 In brief, the chemicals were dissolved in DMSO to a stock concentration of 10 mM, and then freshly serially diluted in serum-free medium before being added to cell culture monolayers. The absorbance was measured using an enzyme-linked immunosorbent assay (ELISA) reader at an optical density (OD) of 570 nm. The percent cell viability was calculated using the following formula, [(ODsample˗ODblank)/(ODcontrol˗ODblank)] × 100%. According to the cell cytotoxicity data, dose-response curves were generated for the calculation of CC50 using GraphPad Prism software version 8.4.2.

[3] = tested on: palmitic and oleic acids; test: LC-MS quantification of palmitic and oleic acids in IAV-infected A549 cells; format: cell-based, human; details: 20 μM
Description: The difference in saturated and unsaturated FFAs between the untreated and the treated cells after infection with IAV or SARS-CoV-2 was determined by GC-FID and LC-MS as previously reported,[11] and detailed procedures are described in Supplementary Information.
The amount of palmitic and oleic acids in the untreated and treated cells after infection with IAV was determined by LC-MS. In brief, A549 cells infected with IAV PR8 strain at an MOI of 0.1 were vehicle-treated, or treated with 20 μM atglistatin or CAY10499 at 12 hpi, or treated with 20 μM atglistatin or CAY10499 and then supplemented individually with 100 μM of PA or OA at 12 hpi, and incubated further for 12 h. Afterward, cells were collected for FFA extraction. 700 μL Chloroform : Methanol (2:1) was added to the freeze cell pellets and vortexed for 1 min. The mixture was sonicated for 5 min and re-vortexed for 1 min. The mixture was centrifuged at 13,000 rpm for 8 min, and the lower organic layer was collected and transferred into a micro-tube. Using vacuum concentrator, the extracts were dried. Finally, the extracts were re-dissolved by methanol and centrifuged at 13,000 rpm for 5 min. The supernatants were transferred into LC-MS vials. […] The standard compounds as well as extracted samples were analyzed in selective ion monitoring (SIM) mode using the ESI source by monitoring the H^- adducts ions. […]

[4] = tested on: LLC-PK; test: Cytotoxicity, MTT assay, LLC-PK; format: cell-based, porcine
Description: as §1, §2

[5] = tested on: SARS-CoV-2 S protein; format: cell-based

Compound | SI (CC50/IC50) [1] | IC50 [1] [µM] | virus replication (genome copy number, infectious progeny) [1] | CC50 [2] [µM] | levels of PA and OA (LC-MS) [3] | CC50 [4] [µM] | palmitoylation of the SARS-CoV-2 spike (S) protein [5]
CN(C)C(=O)Nc1cccc(-c2ccc(N(C)C)cc2)c1 [Atglistatin] | 154 | 1.47 ± 0.12 | inhibiting the replication | 269 ± 3.2 | significantly reduced | 224 ± 2.3 | significantly inhibited
COc1nn(-c2ccc(NC(=O)OCc3ccccc3)c(C)c2)c(=O)o1 [CAY10499] | 62 | 1.54 ± 0.18 | inhibiting the replication | 110 ± 4.1 | significantly reduced | 109 ± 8.1 | significantly inhibited
